# Source: patent US20250268894A1, “MACROCYCLE COMPOUNDS FOR THE TREATMENT OF CANCER” (Hoffmann-La Roche Inc., priority 2022, published 2025)
# Legend:
# [1] = test system: Miapaca-2 KRAS G12C + D60P cells; experiment: Stable KRAS mutant cell line viability assay (CellTiter-Glo), G12C + D60P; assay type: cell-based; conditions: Homo sapiens, MIA PaCa-2, 72 h, Miapaca-2 mutant cells, 3 d
# Text: (§1) The aim of the study was to determine the potency and efficacy of compounds for cell proliferation using CellTiter-Glo® (CTG) Luminescent Cell Viability Assay (Promega Corp., Madison, WI). We cloned […] KRAS^G12C variant sequences with secondary mutations (V8A, V9Y, S17E, T58I, A59T, S65W, R68S, D69P, M72I, D92R, H95N, Y96D, Q99F, Q99W, Y96H, and F156L) into the Miapaca-2. Totally 14 stable Miapaca-2 mutant cell lines were established through lentivirus infection. For the cell viability assay, cells were dosed with compounds in a 9-point dose-response using a 4 fold dilution series at a top dose of 10 μM. KRAS mutant cells were maintained in DMEM+10% FBS+2.5% HI Horse serum+1% PS+1 μg/mL Puromycin and seeded into 96-well plates at 800-1,500 cells per well 24 h before compound addition and then incubated with compound for 3 d before assaying viability (CellTiter-Glo, Promega). Assays were performed in biological duplicates. Nonlinear regression curves were fitted using Xfit. IC50 (absolute IC50) is the dose at which the estimated viability is 50% relative to untreated wells.
# SW620 cells (KRAS G12V) = experiment: Cell viability assay (Cell Counting Kit-8), KRAS G12V; assay type: cell-based; conditions: Homo sapiens, SW-620, SW620, 72 hrs
# Outline: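 Cells seeded overnight at 5,000/well (NCI-H358) or 2,000/well (AGS, SW620), then exposed to compound for 72 hrs at 0.5% DMSO final. CCK-8 read as OD450 minus OD650 after 2 hrs; IC50 from 4-parameter sigmoidal fit.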
# [2] = test system: Miapaca-2 KRAS G12C + D92R cells; experiment: Stable KRAS mutant cell line viability assay (CellTiter-Glo), G12C + D92R; assay type: cell-based; conditions: Homo sapiens, MIA PaCa-2, 72 h, Miapaca-2 mutant cells, 3 d
# Text: as §1
# KRAS G12C-BRAF complex = KRAS G12C-BRAF complex (Homo sapiens (Human), UniProt P01116+P62937, G12C); experiment: KRAS-BRAF with CYPA (500 nM) interaction assay (TR-FRET), G12C; assay type: biochemical
# Sequence of KRAS G12C-BRAF complex (P01116-2 other isoform, or with tags, fused parts or gaps G12C): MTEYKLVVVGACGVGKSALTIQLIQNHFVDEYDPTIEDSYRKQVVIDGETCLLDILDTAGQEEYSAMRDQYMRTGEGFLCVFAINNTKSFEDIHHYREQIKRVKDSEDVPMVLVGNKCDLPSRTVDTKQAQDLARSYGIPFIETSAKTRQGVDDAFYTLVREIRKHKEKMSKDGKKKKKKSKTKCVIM
# Sequence of KRAS G12C-BRAF complex (P62937 whole entry): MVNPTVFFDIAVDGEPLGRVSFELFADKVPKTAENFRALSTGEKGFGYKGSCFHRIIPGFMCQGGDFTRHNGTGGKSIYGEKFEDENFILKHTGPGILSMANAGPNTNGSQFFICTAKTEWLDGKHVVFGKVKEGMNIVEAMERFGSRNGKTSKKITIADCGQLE
# Outline: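 TR-FRET read of compound- or compound-CYPA-driven disruption of BRAF binding by KRAS G12C, G12D or G12V, with CYPA at 500 nM. Compounds tested as 16-point 3-fold dilutions from 10 μM final, incubated 3 hours. Ex320/Em 665/615 nm ratio drop relative to DMSO wells marks disruption.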
smiles,measurement,setting,value
"CO[C@@H](C)c1ncc(N2CCN(CC(F)(F)F)CC2)cc1-c1c2c3cc(ccc3n1CC(F)(F)F)-c1csc(n1)C[C@H](NC(=O)[C@H](C(C)C)N(C)C(=O)N1CCOCC1)C(=O)N1CCC[C@H](N1)C(=O)OCC(C)(C)C2 (atropisomer, axis not shown; (M)) [Example 6]",IC50,[1],8 nM
same,IC50,SW620 cells (KRAS G12V),2 nM
same,IC50,[2],5 nM
same,IC50,KRAS G12C-BRAF complex,23 nM
